# According to patent publication US7148232B2, “Oxazolo, thiazolo and selenazolo [4,5-c]-quinolin-4-amines and analogs thereof” (3M Innovative Properties Company, priority 1998, dated 2006):
# Key:
# interferon (α) [1] = assay: Interferon (α) induction in human cells (in vitro human blood cell system, interferon by bioassay); assay type: cell-based; conditions: human PBM's, 48 hours
# Procedure: An in vitro human blood cell system was used to assess interferon induction by compounds of the invention. Activity is based on the measurement of interferon secreted into culture media. Interferon is measured by bioassay.
# Whole blood is collected by venipuncture into EDTA vacutainer tubes. Peripheral blood mononuclear cells (PBM's) are separated from whole blood by using either LeucoPREP™ Brand Cell Separation Tubes (available from Becton Dickinson) or Ficoll-Paque® solution (available from Pharmacia LKB Biotechnology Inc, Piscataway, N.J.). […] 200 μL portions of PBM suspension are added to 96 well (flat bottom) sterile tissue culture plates (Becton Dickinson Labware, Lincoln Park, N.J.).
# The compounds are solubilized in ethanol, dimethyl sulfoxide or tissue culture water then diluted with tissue culture water, 0.01N sodium hydroxide or 0.01N hydrochloric acid (The choice of solvent will depend on the chemical characteristics of the compound being tested.). Ethanol or DMSO concentration should not exceed a final concentration of 1% for addition to the culture wells. Compounds are initially tested in a concentration range of from about 0.1 μg/mL to about 5 μg/mL. Compounds which show induction at a concentration of 0.5 μg/mL are then tested in a wider concentration range.
# The solution of test compound is added in a volume (less than or equal to 50 μL) to the wells containing 200 μL of diluted whole blood or of PBM's in media. Solvent and/or media is added to control wells (wells with no test compound) and as needed to adjust the final volume of each well to 250 μL. The plates are covered with plastic lids, vortexed gently and then incubated for 48 hours at 37° C. with a 5% carbon dioxide atmosphere.
# Following incubation, the plates are covered with parafilm and then centrifuged at 1000 rpm for 10 to 15 minutes at 4° C. in a Damon IEC Model CRU-5000 centrifuge. Media (about 200 μL) is removed from 4 to 8 wells and pooled into 2 mL sterile freezing vials. Samples are maintained at −70° C. until analysis.
# Interferon is determined by bioassay using A549 human lung carcinoma cells challenged with encephalomyocarditis. The details of the bioassay method have been described by G. L. Brennan and L. H. Kronenberg in “Automated Bioassay of Interferons in Micro-test Plates”, Biotechniques, June/Jul. […] The incubated cells are infected with an inoculum of encephalomyocarditis virus. The infected cells are incubated for an additional period at 37° C. before quantifying for viral cytopathic effect. The viral cytopathic effect is quantified by staining followed by spectrophotometric absorbance measurements. Results are expressed as alpha reference units/mL based on the value obtained for NIH HU IF-L standard.
# Compounds of the invention were tested for their ability to induce interferon in human cells using the test method described above.
# [2] = tested on: tumor necrosis factor (α); assay: Cytokine induction in human cells: tumor necrosis factor (α) secreted by PBMCs (ELISA); assay type: cell-based; conditions: 18 to 24 hours
# Procedure: (§1) An in vitro human blood cell system was used to assess cytokine induction by compounds of the invention.
# (§2) Whole blood is collected by venipuncture into EDTA vacutainer tubes from healthy human donors. […] The PBMC suspension is added to 48 well flat bottom sterile tissue culture plates (Costar, Cambridge, Mass. or Becton Dickinson Labware, Lincoln Park, N.J.) containing an equal volume of RPMI complete media containing test compound.
# (§3) The compounds are solubilized in dimethyl sulfoxide (DMSO). The DMSO concentration should not exceed a final concentration of 1% for addition to the culture wells.
# (§4) The solution of test compound is added at 60 μM to the first well containing RPMI complete and serial 3 fold dilutions are made. The PBMC suspension is then added to the wells in an equal volume, bringing the test compound concentrations to the desired range (0.12 to 30 μM). The final concentration of PBMC suspension is 1.5–2×10^6 cells/mL. The plates are covered with sterile plastic lids, mixed gently and then incubated for 18 to 24 hours at 37° C. in a 5% carbon dioxide atmosphere.
# (§5) Following incubation the plates are centrifuged for 5–10 minutes at 1000 rpm (˜200×g) at 4° C. The cell culture supernatant is removed with a sterile polypropylene pipet and transferred to sterile polypropylene tubes. Samples are maintained at −30 to −70° C. until analysis. The samples are analyzed for interferon (α) by either ELISA or bioassay and for tumor necrosis factor (α) by ELISA
# Tumor necrosis factor (α) (TNF) concentration is determined using ELISA kits available from Genzyme, Cambridge, Mass.; R&D Systems, Minneapolis, Minn.; or Pharmingen, San Diego, Calif. according to the manufacturer's instructions.
# interferon (α) [3] = assay: Cytokine induction in human cells: interferon (α) secreted by PBMCs (ELISA or bioassay); assay type: cell-based; conditions: 18 to 24 hours
# Procedure: as §1, §2, §3, §4, §5
# Interferon is determined by bioassay using A549 human lung carcinoma cells challenged with encephalomyocarditis. […] Briefly stated the method is as follows: A549 cells are incubated with dilutions of samples or a standard interferon at 37° C. for 24 hours. The incubated cells are then infected with an inoculum of encephalomyocarditis virus. The infected cells are incubated for an additional 24 hours at 37° C. before evaluating for viral cytopathic effect. The viral cytopathic effect is quantified by staining with crystal violet followed by visual scoring of the plates. Results are expressed as alpha reference units/mL based on the value obtained for NIH Human Leukocyte IFN standard.
# Interferon (α) concentration is determined by ELISA using a Human Multi-Species kit from PBL Biomedical Laboratories, New Brunswick, N.J. according to the manufacturer's instructions.
Compound,Interferon (α) Induction in Human Cells (interferon (α) [1]; Dose Concentration 0.01 μg/mL),Interferon (α) Induction in Human Cells (interferon (α) [1]; Dose Concentration 0.05 μg/mL),Interferon (α) Induction in Human Cells (interferon (α) [1]; Dose Concentration 0.10 μg/mL),Interferon (α) Induction in Human Cells (interferon (α) [1]; Dose Concentration 0.50 μg/mL),Interferon (α) Induction in Human Cells (interferon (α) [1]; Dose Concentration 1.0 μg/mL),Interferon (α) Induction in Human Cells (interferon (α) [1]; Dose Concentration 5.0 μg/mL),Interferon (α) Induction in Human Cells (interferon (α) [1]; Dose Concentration 10.0 μg/mL),melting point [°C],Tumor Necrosis Factor Induction ([2]; Dose Concentration 0.12 μM),Tumor Necrosis Factor Induction ([2]; Dose Concentration 0.37 μM),Tumor Necrosis Factor Induction ([2]; Dose Concentration 1.11 μM),Tumor Necrosis Factor Induction ([2]; Dose Concentration 3.33 μM),Tumor Necrosis Factor Induction ([2]; Dose Concentration 10 μM),Tumor Necrosis Factor Induction ([2]; Dose Concentration 30 μM),Interferon (α) Induction (interferon (α) [3]; Dose Concentration 0.12 μM),Interferon (α) Induction (interferon (α) [3]; Dose Concentration 0.37 μM),Interferon (α) Induction (interferon (α) [3]; Dose Concentration 1.11 μM),Interferon (α) Induction (interferon (α) [3]; Dose Concentration 3.33 μM),Interferon (α) Induction (interferon (α) [3]; Dose Concentration 10 μM),Interferon (α) Induction (interferon (α) [3]; Dose Concentration 30 μM),other results
"CC(C)c1nc2c(N)nc3ccccc3c2s1 [Example 20, 2-(1-Methyethyl)thiazolo[4,5-c]quinolin-4-amine]",−,−,−,−,−,+,+,163 to 165,−,−,−,+,+,+,−,−,+,−,−,−,Interferon (α) Induction in Human Cells (interferon (α) [1]; Dose Concentration 25.0 μg/mL): +; Interferon (α) Induction in Human Cells (interferon (α) [1]; Dose Concentration 50.0 μg/mL): +
"CCCc1nc2c(N)nc3cc(F)ccc3c2o1 [Example 48, 7-Fluoro-2-propyloxazolo[4,5-c]quinolin-4-amine]",−,−,−,+,+,+,,184 to 187,,,,,,,,,,,,,
"CCCc1nc2c(N)nc3cc(F)ccc3c2s1 [Example 49, 7-Fluoro-2-propylthiazolo[4,5-c]quinolin-4-amine]",−,−,−,+,+,+,,192.5 to 193.5,,,,,,,,,,,,,
"CCCc1nc2c(N)nc3cc(C(F)(F)F)ccc3c2s1 [Example 50, 2-Propyl-7-(trifluoromethyl)thiazolo[4,5-c]quinolin-4-amine]",,,−,+,+,+,+,215 to 216,,,,,,,,,,,,,Interferon (α) Induction in Human Cells (interferon (α) [1]; Dose Concentration 25.0 μg/mL): +; Interferon (α) Induction in Human Cells (interferon (α) [1]; Dose Concentration 50.0 μg/mL): +
"Nc1nc2ccccc2c2sc(N3CCCC3)nc12 [Example 54, 2-(1-Pyrrolidino)thiazolo[4,5-c]quinolin-4-amine]",−,−,−,−,−,−,−,259 to 261,,,,,,,,,,,,,Interferon (α) Induction in Human Cells (interferon (α) [1]; Dose Concentration 25.0 μg/mL): +; Interferon (α) Induction in Human Cells (interferon (α) [1]; Dose Concentration 50.0 μg/mL): +
"CCCCc1nc2c(N)nc3cccnc3c2s1 [Example 58, 2-Butylthiazolo[4,5-c][1,5]naphthyridin-4-amine]",,,,,,,,136 to 138,−,+,+,+,+,+,−,−,−,−,±,±,
"CCCc1nc2c(N)nc3cccnc3c2s1 [Example 60, 2-Propylthiazolo[4,5-c][1,5]naphthyridin-4-amine]",,,,,,,,135 to 136,−,±,+,+,+,+,−,−,−,−,−,−,
"CCCc1nc2c(N)nc3cc(Cl)ccc3c2s1 [Example 63, 7-Chloro-2-propylthiazolo[4,5-c]quinolin-4-amine]",,,,,,,,159 to 160,+,+,+,+,+,+,−,−,+,+,+,−,
"CCCc1nc2c(N)nc3cc(OC)ccc3c2s1 [Example 64, 7-Methoxy-2-propylthiazolo[4,5-c]quinolin-4-amine]",,,,,,,,152 to 154,+,+,+,+,+,+,−,+,+,+,+,+,
